Laboratory results as given in article PMC5796027, “Thiopurine Drugs Repositioned as Tyrosinase Inhibitors” (International Journal of Molecular Sciences, 2017).
“Also recorded” adds a separate entry of the source. One block for each compound: values may come before it.

Experiments:
tyrosinase = conditions: cited from earlier work; for reported inhibition of tyrosinase through direct binding: literature survey ref 36,37
mushroom tyrosinase [1] = target: T1, mushroom tyrosinase (Agaricus bisporus, UniProt C7FF04); test: Mushroom tyrosinase enzyme inhibition assay (dopachrome absorbance at 475 nm); type: biochemical; conditions: for inhibition of mushroom tyrosinase (in words): enzyme assay with 0.01% Triton X-100; for LE, ligand efficiency: −1.37 × (Log10Ki)/HA, HA = number of heavy atoms
Method: (§1) Enzyme activity and kinetics experiments with inhibitors—All of the reagents used in this study were purchased from ChemBridge (San Diego, CA, USA), Sigma-Aldrich (St. Louis, MO, USA), or Tokyo Chemical Industry (Tokyo, Japan). The reaction solution for the enzyme assay was prepared with 200 nM mushroom tyrosinase and inhibitors in phosphate-buffered saline (PBS), containing 5% dimethyl sulphoxide and 0.01% (w/v) Triton X-100. After incubating the mixture at 30 °C for 10 min, 500 μM L-tyrosine was added as the substrate. […] The IC50 was evaluated by analysing different concentrations of each inhibitor. The inhibitory constants (Ki) were converted from the IC50 values using the Km obtained from kinetics experiments and substrate concentration based on the Cheng–Prusoff equation [60]. A series of substrates at concentrations of 0.25, 0.33, 0.4, 0.5, 0.67, and 1 mM were used to obtain the respective velocities (V) for enzyme inhibitory kinetics. The concentrations of each inhibitor were varied and comprised the range that included the IC50 value. Four models (competitive, uncompetitive, non-competitive, and mixed) that were derived from the Michaelis-Menten equation were used to fit the kinetic parameters, maximum velocity (Vmax), Michaelis constant (Km), and the dissociation constants between the substrate-free enzyme and inhibitor (Kic) and the substrate-bound enzyme and inhibitor (Kiu). The data from all the concentrations of the substrate and inhibitor were simultaneously fitted nonlinearly by minimising the χ^2 value, defined as the sum of the squared deviations between experimental and fitted values for each model. The appropriate model was selected based on the F-test with χ^2 values from the four models, coupled with the extraction of the related parameters. All of the fittings and statistical analyses in this study were computed by using MATLAB® (MathWorks, Natick, MA, USA).
Target sequence in this assay (C7FF04 1-392): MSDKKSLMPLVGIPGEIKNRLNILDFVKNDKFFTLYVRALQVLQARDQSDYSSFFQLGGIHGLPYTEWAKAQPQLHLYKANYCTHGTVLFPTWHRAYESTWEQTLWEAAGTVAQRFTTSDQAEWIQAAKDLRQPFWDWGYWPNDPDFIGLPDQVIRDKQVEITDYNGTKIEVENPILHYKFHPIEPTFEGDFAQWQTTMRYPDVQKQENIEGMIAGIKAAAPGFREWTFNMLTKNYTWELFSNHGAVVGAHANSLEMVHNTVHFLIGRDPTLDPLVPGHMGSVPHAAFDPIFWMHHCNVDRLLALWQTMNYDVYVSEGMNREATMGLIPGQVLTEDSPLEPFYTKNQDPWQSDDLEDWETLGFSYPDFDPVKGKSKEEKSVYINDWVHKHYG

[2] = parameters: method as in PMID 22587354, PMID 18551414, PMID 15667143; conditions: extracted from the ZINC database ref 33,34,35; cited from earlier work
mushroom tyrosinase [3] = target: T1, mushroom tyrosinase; test: Enzyme inhibitory kinetics with nonlinear fitting of Michaelis-Menten models; type: biochemical; conditions: for Mechanism of inhibition: model chosen by χ2 and F-test among competitive, uncompetitive, non-competitive, mixed; for Ki: nonlinear data fitting, competitive model, read-out: kinetically fitted Ki
Method: as §1
Target sequence in this assay (C7FF04 1-392): as above

[4] = system: B16F10 murine melanoma cells; test: Melanin content assay in B16F10 cells; type: cell-based; conditions: 10, 20 and 50 μM tested, 48 h
Method: (§2) Cell-based activity assays with inhibitors—The melanin content and MTT conversion were measured in B16F10 murine melanoma cells that were purchased from the Korean Cell Line Bank (Seoul, Korea). When the density of B16F10 cells reached 1 × 10^5 cells, the test inhibitors (10, 20, and 50 μM) and 3-isobutyl-1-methylxanthine (IBMX, 100 μM) were added, and the cells were incubated for 48 h. The amount of melanin released into the extracellular area was quantified by measuring the absorbance at 405 nm, and was subsequently expressed as a percentage relative to the untreated control. The change in the reduction of the MTT dye into formazan in the cell was quantitatively interpreted as the cellular toxicity induced by the inhibitor. The inhibition of tyrosinase was also estimated using the B16F10 cell lysates, as described previously [28]. In brief, the cells were lysed in PBS supplemented with 1% (w/v) Triton X-100, centrifuged at 14,000 g for 30 min, and then the supernatants were dialysed to remove Triton X-100. After adding 500 μM L-DOPA and the inhibitors (10, 20, and 50 μM) to the prepared lysates, the change in absorbance over time at 475 nm was measured. The decrease in absorbance was calculated relative to the absorbance of the untreated controls.

human hepatocytes = conditions: up to several tens of μM ref 43; cited from earlier work
mushroom tyrosinase [5] = target: T1, mushroom tyrosinase; test: Differential scanning fluorimetry (DSF); type: binding; conditions: 0.5 μM protein, 200 μM inhibitor, control without inhibitor 51.8 °C
Method: DSF—The stability of mushroom tyrosinase in the presence and absence of inhibitors was assessed using DSF using a […] (RT-PCR) CFX96 system (BioRad, Hercules, CA, USA). […] The Tm value, which is the mid-point melting temperature, was calculated from a nonlinear fit of the temperature-dependent fluorescent intensity I(T), expressed as the Boltzmann equation: I(T)=LL+UL−LL/1+exp(Tm−T/a), where UL and LL are related to the baseline and top of the curves, respectively, and a is the steepness of the slope. Only data in the range of 35–65 °C were used for the fitting.
Target sequence in this assay (C7FF04 1-392 limits assumed): as the sequence (C7FF04 1-392) above

mammalian tyrosinase = target: T2, mammalian tyrosinase (Mus musculus, UniProt P11344); test: Tyrosinase inhibition in B16F10 cell lysates (L-DOPA substrate); type: biochemical, murine; conditions: 10, 20, 50 μM inhibitor, 500 μM L-DOPA
T2 construct: we performed an enzymatic assay with melanoma B16F10 cell lysates; endogenous in cells; host or cells: B16F10 murine melanoma cells (Korean Cell Line Bank), Triton X-100 lysate, dialysed supernatant
T2 sequence (P11344 19-533): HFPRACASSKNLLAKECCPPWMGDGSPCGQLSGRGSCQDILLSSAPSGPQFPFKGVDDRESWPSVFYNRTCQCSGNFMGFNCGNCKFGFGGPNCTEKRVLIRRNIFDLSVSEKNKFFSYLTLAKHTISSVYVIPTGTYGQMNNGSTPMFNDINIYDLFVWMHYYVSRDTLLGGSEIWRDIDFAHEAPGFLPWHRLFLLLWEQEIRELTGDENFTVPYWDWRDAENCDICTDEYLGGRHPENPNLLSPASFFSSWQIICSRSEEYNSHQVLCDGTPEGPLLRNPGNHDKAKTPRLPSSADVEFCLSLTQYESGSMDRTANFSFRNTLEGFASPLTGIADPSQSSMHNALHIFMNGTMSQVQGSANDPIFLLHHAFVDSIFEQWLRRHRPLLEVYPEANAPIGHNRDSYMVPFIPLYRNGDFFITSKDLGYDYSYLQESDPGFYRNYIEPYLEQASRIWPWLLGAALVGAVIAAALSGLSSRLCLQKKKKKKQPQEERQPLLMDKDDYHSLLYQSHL
Method: as §2

melanin contents = system: melanin contents; parameters: method as in PMID 23123645, PMID 23411395, PMID 22901670; conditions: higher concentrations (>100 μM) ref 44,45,46; cited from earlier work

SMILES: Nn1c(S)nnc1-c1ccncc1 [ZINC509439, 4-amino-5-(4-pyridyl)-4H-1,2,4-triazole-3-thiol]
Ki (tyrosinase; BindingDB entry ref 48, read-out: reported Ki): 1 µM

SMILES: O=C(O)c1cccnc1Nc1cccc(C(F)(F)F)c1 [nifumic acid]
inhibition of mushroom tyrosinase (in words) (mushroom tyrosinase [1]): only thioguanine exerted inhibitory action

SMILES: O=c1[nH]cnc2nc[nH]c12 [Hypoxanthine, hypoxanthine]
LogP [2]: −0.35
Ki (mushroom tyrosinase [1]): > 1000 µM
inhibition of mushroom tyrosinase (in words) (mushroom tyrosinase [1]): only thioinosine inhibited tyrosinase

SMILES: O=Cc1ccc(O[C@@H]2O[C@H](CO)[C@@H](O)[C@@H](O)[C@H]2O)cc1 [ZINC5234422, 4-(β-D-allopyranosyloxy)benzaldehyde]
IC50 (tyrosinase; BindingDB entry ref 48, read-out: half-maximal inhibitory concentration (IC50)): 94 µM

SMILES: Nc1nc2nc[nH]c2c(=O)[nH]1 [Guanine, guanine]
LogP [2]: −0.77
Ki (mushroom tyrosinase [1]): > 1000 µM
inhibition of mushroom tyrosinase (in words) (mushroom tyrosinase [1]): only thioinosine inhibited tyrosinase

Mechanism of inhibition (mushroom tyrosinase [3]): Competitive
Mechanism of inhibition (mushroom tyrosinase [3]; listed as mercaptopurine): competitive inhibitors
Ki (mushroom tyrosinase [3]): 29 µM
Tm of tyrosinase in complex with inhibitor (mushroom tyrosinase [5]): 49.0 ± 0.2 °C
Tm of tyrosinase in complex with inhibitor (mushroom tyrosinase [5]; listed as mercaptopurine): 49.0 °C
inhibition of tyrosinase in B16F10 cell lysates (in words) (mammalian tyrosinase): highest inhibition
Ki (mushroom tyrosinase [1]; read-out: Ki): 16 µM
LE, ligand efficiency (mushroom tyrosinase [1]): 0.61
SMILES: Sc1ncnc2nc[nH]c12 [Mercaptopurine, mercaptopurine]
reduction of melanin content (in words) [4]: less effective
cytotoxicity in human hepatocytes (human hepatocytes): less cytotoxic up to several tens of μM
inhibition of tyrosinase in B16F10 cell lysates (in words) (mammalian tyrosinase; listed as mercaptopurine): inhibited melanin syntheses in a concentration-dependent manner
LogP [2]: 1.00

SMILES: O=c1cc(CO)occ1O [Kojic acid, kojic acid]
decrease of melanin contents (melanin contents): meaningful decreases
reduction of melanin content (in words) [4]: marginal
LogP [2]: −0.16

SMILES: Cn1cnc([N+](=O)[O-])c1Sc1ncnc2nc[nH]c12 [Azathioprine, azathioprine]
LogP [2]: 1.15
Ki (mushroom tyrosinase [1]): > 1000 µM
inhibition of mushroom tyrosinase (in words) (mushroom tyrosinase [1]): but not azathioprine, exerted an inhibitory activity; also recorded: poor inhibitor

SMILES: Nc1nc2nc[nH]c2c(=S)[nH]1 [Thioguanine, thioguanine]
Mechanism of inhibition (mushroom tyrosinase [3]): Competitive
Mechanism of inhibition (mushroom tyrosinase [3]; listed as thioguanine): competitive inhibitors
Ki (mushroom tyrosinase [3]): 40 µM
reduction of melanin content (in words) [4]: markedly reduced the melanin content at 20 and 50 μM
Tm of tyrosinase in complex with inhibitor (mushroom tyrosinase [5]): 49.8 ± 0.2 °C
Tm of tyrosinase in complex with inhibitor (mushroom tyrosinase [5]; listed as thioguanine): 49.8 °C
inhibition of tyrosinase in B16F10 cell lysates (in words) (mammalian tyrosinase): inhibited melanin syntheses in a concentration-dependent manner
LogP [2]: 0.60
inhibition of mushroom tyrosinase (in words) (mushroom tyrosinase [1]): only thioguanine exerted inhibitory action
Ki (mushroom tyrosinase [1]; read-out: Ki): 52 µM

SMILES: COc1ccc(/C=C/C(=O)Nc2ccccc2C(=O)O)cc1OC [tranilast]
inhibition of mushroom tyrosinase (in words) (mushroom tyrosinase [1]): only thioguanine exerted inhibitory action

Mechanism of inhibition (mushroom tyrosinase [3]): Competitive
Mechanism of inhibition (mushroom tyrosinase [3]; listed as thioinosine): competitive inhibitors
Ki (mushroom tyrosinase [3]): 14 µM
Tm of tyrosinase in complex with inhibitor (mushroom tyrosinase [5]): 51.0 ± 0.2 °C
Tm of tyrosinase in complex with inhibitor (mushroom tyrosinase [5]; listed as thioinosine): 51.0 °C
Ki (mushroom tyrosinase [1]; read-out: Ki): 8 µM
LE, ligand efficiency (mushroom tyrosinase [1]): 0.34
SMILES: OC[C@H]1O[C@@H](n2cnc3c(S)ncnc32)[C@H](O)[C@@H]1O [Thioinosine, thioinosine]
reduction of melanin content (in words) [4]: markedly reduced the melanin content at 20 and 50 μM
inhibition of tyrosinase in B16F10 cell lysates (in words) (mammalian tyrosinase): inhibited melanin syntheses in a concentration-dependent manner
LogP [2]: −0.90

SMILES: CCCN(CCC)S(=O)(=O)c1ccc(C(=O)O)cc1 [probenecid]
inhibition of mushroom tyrosinase (in words) (mushroom tyrosinase [1]): only thioguanine exerted inhibitory action

SMILES: N[C@@H](CSCC(=O)O)C(=O)O [S-carboxymethyl-L-cysteine]
inhibition of mushroom tyrosinase (in words) (mushroom tyrosinase [1]): only thioguanine exerted inhibitory action

SMILES: Nc1ccc(C(=O)NCC(=O)O)cc1 [aminohippuric acid]
reported inhibition of tyrosinase through direct binding (tyrosinase): has been reported

SMILES: O=C(O)c1cc(-c2ccc(F)cc2F)ccc1O [diflunisal]
reported inhibition of tyrosinase through direct binding (tyrosinase): has been reported

SMILES: NC(CC(=O)O)C(=O)O (racemic) [D,L-aspartic acid]
inhibition of mushroom tyrosinase (in words) (mushroom tyrosinase [1]): only thioguanine exerted inhibitory action
